Measured values: patent publication US20100047233A1, “TREATMENT OF POST-MENOPAUSAL AND POST-HYSTERECTOMY MEDIATED COGNITIVE DISORDERS” (priority 2006, published 2010)
Entries after “also recorded” stand apart in the source; their conditions may differ. Non-standard residues stand in square brackets, D forms with d. Residues, ends and D or L forms follow the SMILES beside them. dPhe(4-Cl) = N[C@H](Cc1ccc(Cl)cc1)C(=O)O; d2Nal = N[C@H](Cc1ccc2ccccc2c1)C(=O)O; dCit = NC(=O)NCCC[C@@H](N)C(=O)O; d3Pal = N[C@H](Cc1cccnc1)C(=O)O

Key:
C57/B6 female mice [1] = assay: Morris Water Maze in ovariectomized mice (leuprolide acetate, estrogen); type: in vivo; settings: for OVX-associated cognitive decline, length of time taken to locate the invisible platform across days: OVX C57/B6 mice, Morris Water Maze, 3 months treatment
Source text: (Significance indicated by: *P+S vs E+S; #=P+S vs P+L; $=P+S vs SHAM; %=P+S vs E+L; at p<0.05).
For this pilot 2 month old C57/B6 female mice from Jackson Labs, were ovariectomized (n=40) them and either replaced them with 90-day time-release estrogen (n=20) or placebo pellets (Innovative research of America, F1) (n=18). […] In addition we added a SHAM ovariectomized group that received saline and a placebo pallet (n=10). During the last two weeks of the study all animals have been tested for Y-maze and Morris Water Maze performance.
As mentioned before, all mice also underwent MWM testing, a measurement of hippocampal function based on the capacity of the animal to find a hidden platform under water by remembering and using spatial cues in the environment.
(§1) Additionally, to further determine the memory function and training success in the animals we measured the capacity of the animals to retain the information learned using a probe trial. In this regard, at the end of the last day of training we removed the platform and let the animals swim for 1 minute.

C57/B6 female mice [2] = assay: Y-maze performance in ovariectomized mice; type: in vivo; settings: OVX mice; for Y-maze performance: leuprolide acetate 7.5 mg/kg for 3 months vs saline, improvement specific to placebo replaced group
Protocol: To measure spontaneous alternation behavior and exploratory activity, a hippocampal-associated task, we used a Y-maze [32 cm (long)×10 cm (wide) with 26-cm walls]. Tg-LHβ and LHRKO animals were tested as previously described (Joseph et al., 2003). Briefly, each animal (randomized and investigator-blinded) was placed in one of three arms of the Y-maze (alternating arms across animals in each group) and each arm entry was recorded for duration of 5 minutes. An alternation was defined as 3 entries in 3 different arms (i.e., 1, 2, 3 or 2, 3, 1 etc). % number of alternations was calculated as (total alternations/total number of entries−2)×100. The maze was cleaned with ethanol between each animal to minimize odor cues. […] In addition we added a SHAM ovariectomized group that received saline and a placebo pallet (n=10). During the last two weeks of the study all animals have been tested for Y-maze and Morris Water Maze performance.

Tg2576 mice [3] = assay: Y-maze performance in aged Tg2576 mice; type: in vivo; settings: aged (21 month old) Tg2576 female mice, 3 months, vs saline/placebo
Protocol: Figure illustrates the mean % alternations expressed as % change from baseline. To measure spontaneous alternation behavior and exploratory activity, a hippocampal-associated task, we used a Y-maze [32 cm (long)×10 cm (wide) with 26-cm walls]. Tg-LHβ and LHRKO animals were tested as previously described (Joseph et al., 2003). Briefly, each animal (randomized and investigator-blinded) was placed in one of three arms of the Y-maze (alternating arms across animals in each group) and each arm entry was recorded for duration of 5 minutes. An alternation was defined as 3 entries in 3 different arms (i.e., 1, 2, 3 or 2, 3, 1 etc). % number of alternations was calculated as (total alternations/total number of entries−2)×100. The maze was cleaned with ethanol between each animal to minimize odor cues. […] In this initial study we used aged animals to 1) circumvent the estrogen issue, since aged mice, like humans show estropause and 2) to examine the effects of LH ablation once the disease is well established.

serum LH = assay: Serum LH after leuprolide acetate treatment in mice; type: in vivo; settings: for serum LH: Tg2576 mice, vs saline
Source text: (§2) Inset: LHβ mRNA expression in mouse pituitary gland.

Aβ [4] = assay: Aβ burden (% area stained) in hippocampus of Tg2576 mice; type: in vivo; settings: vs saline-treated animals
Source text: Scale bar, 200 μm. […] In this initial study we used aged animals to 1) circumvent the estrogen issue, since aged mice, like humans show estropause and 2) to examine the effects of LH ablation once the disease is well established.

AD patients = settings: high doses, phase II clinical trial; cited from earlier work
Tg2576 mice [5] = settings: APP transgenic mice, earlier study; cited from earlier work
Aβ [6] = settings: APP transgenic mice, earlier study; cited from earlier work
LHβ mRNA = LHβ mRNA expression in mouse pituitary gland; type: in vivo; settings: saline versus 6 and 8 week leuprolide acetate treatment
Source text: as §2

C57/B6 female mice [7] = assay: Morris Water Maze in ovariectomized mice (cetrorelix); type: in vivo
Source text: FIG. 13 are graphs illustrating Latency to enter NE quadrant and % Time spent in NE quadrant during the probe trial for animals treated with cetrorelix or saline and sham operated animals (SHAM).
FIG. 14 are plots illustrating the distance swam in NE quadrant during the trial for animals treated with cetrorelix or saline and sham operated animals.
We present preliminary data gathered from a pilot study and that focuses on the effects of cetrorelix on cognition in ovariectomized animals with or without estrogen replacement immediately after surgery. For this pilot 2 month old C57/B6 female mice were ovariectomized, as described above, and then treated with either 0.9% saline and the other half with cetrorelix. In addition we added a SHAM ovariectomized group that received saline and a placebo pallet (n=10). During the last two weeks of the study all animals have been tested for Morris Water Maze performance.
as §1

[8] = platform removed, 1 minute swim, regardless of replacement regiment

Q: For estrogen, which “OVX-associated cognitive decline, length of time taken to locate the invisible platform across days” value (C57/B6 female mice [1]) is on record?
A: The value was “rescued”.

Q: What about the “Y-maze performance, estrogen-replaced vs placebo replaced” value (C57/B6 female mice [2]; saline-treated, 90-day time-release estrogen vs placebo pellets, p=0.07) of the same compound?
A: The value was “strong trend”.

Q: With `CCNC(=O)[C@@H]1CCCN1C(=O)[C@H](CCCNC(=N)N)NC(=O)[C@H](CC(C)C)NC(=O)[C@@H](CC(C)C)NC(=O)[C@H](Cc1ccc(O)cc1)NC(=O)[C@H](CO)NC(=O)[C@H](Cc1c[nH]c2ccccc12)NC(=O)[C@H](Cc1c[nH]cn1)NC(=O)[C@@H]1CCC(=O)N1` [leuprolide acetate] as the compound, how does the “Y-maze cognitive performance (% alternations, % change from baseline)” value (Tg2576 mice [3]) read?
A: The value was “significantly attenuates cognitive decline”.

Q: What about the “serum LH” value (serum LH) of the same compound?
A: Its value is “significant decline in serum LH”.

Q: What about the “serum LH” value (serum LH; listed as Leuprolide acetate) of the same compound?
A: The value was “significantly reduces serum LH”.

Q: What about the “time course of serum LH” value (serum LH; up to 8 weeks following treatment) of the same compound?
A: Its value is “classical LH modulation pattern by GnRH agonists”.

Q: What about the “Aβ burden / plaque load (% area stained in the entire hippocampus)” value (Aβ [4]) of the same compound?
A: Its value is “significantly lower; also recorded: decreases Aβ plaque load”.

Q: What about the “cognitive impairment and activities of daily living” value (AD patients) of the same compound?
A: The value was “stabilization in cognitive impairment and activities of daily living”.

Q: And the Y-maze performance (Tg2576 mice [5])?
A: The Y-maze performance was “improves Y-maze performance”.

Q: And the “amyloid-β load in the hippocampus” value (Aβ [6])?
A: The value was “decreases amyloid-β load”.

Q: What about the “LHβ mRNA expression in the pituitary” value (LHβ mRNA) of the same compound?
A: The value was “clear decrease in the expression of LHβ mRNA”.

Q: What about the “OVX-associated cognitive decline, length of time taken to locate the invisible platform across days” value (C57/B6 female mice [1]) of the same compound?
A: The value was “as effective as estrogen in rescuing OVX-associated cognition decline”.

Q: What about the “rate of learning in Morris Water Maze” value (C57/B6 female mice [1]; independent of replacement regiment, vs saline) of the same compound?
A: Its value is “learned at a faster rate”.

Q: And the “distance swam in NE quadrant, probe trial” value (C57/B6 female mice [1]; [8])?
A: Its value is “swam longer distances”.

Q: And the “latency to enter NE quadrant, probe trial” value (C57/B6 female mice [1]; [8])?
A: The value was “entered that quadrant earlier”.

Q: What about the “latency to enter platform location, probe trial” value (C57/B6 female mice [1]; [8]) of the same compound?
A: Its value is “crossed the invisible platform region more earlier”.

Q: And the “number of platform crossings, probe trial” value (C57/B6 female mice [1]; [8])?
A: Its value is “crossed it more times”.

Q: What about the Y-maze performance (C57/B6 female mice [2]) of the same compound?
A: Its Y-maze performance is “significantly improved Y-maze performance”.

Q: What about the Y-maze performance (C57/B6 female mice [2]; listed as leuprolide) of the same compound?
A: Its Y-maze performance is “effective at improving OVX-dependent cognitive declines”.

Q: Which results are given for `CC(=O)N[C@H](Cc1ccc2ccccc2c1)C(=O)N[C@H](Cc1ccc(Cl)cc1)C(=O)N[C@H](Cc1cccnc1)C(=O)N[C@@H](CO)C(=O)N[C@@H](Cc1ccc(O)cc1)C(=O)N[C@H](CCCNC(N)=O)C(=O)N[C@@H](CC(C)C)C(=O)N[C@@H](CCCNC(=N)N)C(=O)N1CCC[C@H]1C(=O)N[C@H](C)C(N)=O` [cetrorelix] (Ac-[d2Nal][dPhe(4-Cl)][d3Pal]SY[dCit]LRP[dA]-NH2)?
A: OVX-dependent cognitive declines, Morris Water Maze (C57/B6 female mice [7]; OVX placebo-implanted mice, cetrorelix vs saline): effective at improving OVX-dependent cognitive declines; rate of learning in Morris Water Maze (C57/B6 female mice [7]; independent of replacement regiment, cetrorelix vs saline): learned at a faster rate; distance swam in NE quadrant, probe trial (C57/B6 female mice [7]; platform removed, 1 minute swim): swam longer distances
